The source of these data is patent publication US5650154A (priority 1989, dated 1997).

The subject of this assay is polyclonal serum raised against the native antigen. The assay can be described thus: Reaction of peptide with polyclonal serum raised against the native antigen. The class given is binding, rabbits. To be noted: rabbit serum.

In the case of “ELVALSNSITAQQMAMMAZASPA [Peptide (b), Tryptic peptide of the H. contortus antigen purified by HPLC]”, the “reaction with polyclonal serum raised against the native antigen” value is “reacts strongly”.
